# Assay results reported in the supplement of paper PMC10307832.
# Compound: Cc1cnc(CNC(=O)c2c(=O)c3ccc(N4CCCN(C)CC4)nc3n3c2sc2ccccc23)cn1 [CX-5461] + O=C(c1cc(Cc2n[nH]c(=O)c3ccccc23)ccc1F)N1CCN(C(=O)C2CC2)CC1 [Olaparib] (partner 8 µM)
# Test: relative viability (nuclei count vs DMSO), 5 days (fraction); higher = more cells survive
# Conditions: first compound 0.01 µM
# Outline: (§1)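 Medians of duplicate plates are given as relative viability. That measure is the nuclei count in treated wells divided by the count in vehicle wells. Counts were taken on 4× images of lung cancer cell lines in 1536-well plates, 5 days after pin-tool dosing the day after seeding with one drug alone or a fixed anchor-drug dose plus five library-drug doses (not always all listed) in √10 steps.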
row,Cell Line,relative viability
1,NCI-H522,0.647
2,NCI-H727,0.713
3,NCI-H1650,0.718
4,EBC-1,0.684
5,NCI-H1703,0.535
6,NCI-H1993,1.19
7,SK-LU-1,0.423
8,NCI-H838,0.863
9,LCLC-103H,0.766
10,NCI-H520,0.309
11,NCI-H2126,0.956
12,EMC-BAC-2,0.452
13,NCI-H2085,0.772
14,Calu-6,0.523
15,HCC-366,0.444
16,NCI-H1666,0.708
17,NCI-H596,0.719
18,NCI-H1395,0.457
19,NCI-H2087,0.683

row,Cell Line,relative viability
1,NCI-H2342,0.488
2,LK-2,0.664
3,H3255,0.558
4,COR-L23,0.36
5,COR-L 105,0.658
6,IA-LM,0.838
7,LOU-NH91,0.973
8,ChaGo-K-1,0.381
9,A549,0.487
10,SW 900,0.785
11,NCI-H1648,1.19
12,NCI-H2009,0.631
13,NCI-H661,0.832
14,SW 1573,0.395
15,NCI-H1299,0.979
16,CAL-12T,0.732
17,NCI-H2228,0.75
18,NCI-H2023,0.445
19,SK-MES-1,0.706

# Same assay, conditions: first compound 0.03162 µM
row,Cell Line,relative viability
1,NCI-H522,0.645
2,NCI-H727,0.704
3,NCI-H1650,0.819
4,EBC-1,0.701
5,NCI-H1703,0.531
6,NCI-H1993,1.1
7,SK-LU-1,0.467
8,NCI-H838,0.846
9,LCLC-103H,0.857
10,NCI-H520,0.315
11,NCI-H2126,0.974
12,EMC-BAC-2,0.476
13,NCI-H2085,0.783
14,Calu-6,0.546
15,HCC-366,0.444
16,NCI-H1666,0.731
17,NCI-H596,0.715
18,NCI-H1395,0.427
19,NCI-H2087,0.68

row,Cell Line,relative viability
1,NCI-H2342,0.398
2,LK-2,0.957
3,H3255,0.543
4,COR-L23,0.338
5,COR-L 105,0.654
6,IA-LM,0.83
7,LOU-NH91,0.992
8,ChaGo-K-1,0.403
9,A549,0.418
10,SW 900,0.872
11,NCI-H1648,0.765
12,NCI-H2009,0.621
13,NCI-H661,0.754
14,SW 1573,0.468
15,NCI-H1299,0.982
16,CAL-12T,0.747
17,NCI-H2228,0.773
18,NCI-H2023,0.354
19,SK-MES-1,0.738

# Same assay, conditions: first compound 0.1 µM
row,Cell Line,relative viability
1,NCI-H522,0.664
2,NCI-H727,0.762
3,NCI-H1650,0.642
4,EBC-1,0.595
5,NCI-H1703,0.334
6,NCI-H1993,1.1
7,SK-LU-1,0.442
8,NCI-H838,0.726
9,LCLC-103H,0.793
10,NCI-H520,0.261
11,NCI-H2126,0.924
12,EMC-BAC-2,0.383
13,NCI-H2085,0.845
14,Calu-6,0.482
15,HCC-366,0.429
16,NCI-H1666,0.748
17,NCI-H596,0.626
18,NCI-H1395,0.443

row,Cell Line,relative viability
1,NCI-H2087,0.583
2,NCI-H2342,0.44
3,LK-2,0.918
4,H3255,0.578
5,COR-L23,0.299
6,COR-L 105,0.718
7,IA-LM,0.807
8,LOU-NH91,0.901
9,ChaGo-K-1,0.433
10,A549,0.31
11,NCI-H1648,0.76
12,NCI-H2009,0.616
13,NCI-H661,0.662
14,SW 1573,0.29
15,NCI-H1299,0.973
16,CAL-12T,0.699
17,NCI-H2228,0.518
18,SK-MES-1,0.508

# Same assay, conditions: first compound 0.3162 µM
row,Cell Line,relative viability
1,NCI-H727,0.837
2,NCI-H1650,0.756
3,EBC-1,0.706
4,NCI-H1703,0.538
5,NCI-H1993,0.976
6,SK-LU-1,0.473
7,NCI-H838,0.726
8,LCLC-103H,0.788
9,NCI-H520,0.277
10,NCI-H2126,0.968
11,EMC-BAC-2,0.343
12,NCI-H2085,0.787
13,Calu-6,0.543
14,HCC-366,0.315
15,NCI-H1666,0.696
16,NCI-H596,1.13
17,NCI-H1395,0.435
18,NCI-H2087,0.602

row,Cell Line,relative viability
1,NCI-H2342,0.391
2,H3255,0.531
3,COR-L23,0.3
4,COR-L 105,0.675
5,IA-LM,0.753
6,LOU-NH91,0.524
7,ChaGo-K-1,0.442
8,A549,0.0579
9,SW 900,0.923
10,NCI-H1648,0.762
11,NCI-H2009,0.672
12,NCI-H661,0.602
13,SW 1573,0.438
14,NCI-H1299,1
15,CAL-12T,0.634
16,NCI-H2228,0.55
17,NCI-H2023,0.248
18,SK-MES-1,0.641

# Same assay, conditions: first compound 1 µM
row,Cell Line,relative viability
1,NCI-H522,0.664
2,NCI-H727,0.763
3,NCI-H1650,0.257
4,EBC-1,0.579
5,NCI-H1703,0.422
6,NCI-H1993,1.01
7,SK-LU-1,0.335
8,NCI-H838,0.476
9,LCLC-103H,0.762
10,NCI-H520,0.184
11,NCI-H2126,0.863
12,EMC-BAC-2,0.324
13,NCI-H2085,0.736
14,Calu-6,0.253
15,HCC-366,0.273
16,NCI-H1666,0.676
17,NCI-H596,0.676
18,NCI-H1395,0.456
19,NCI-H2087,0.471

row,Cell Line,relative viability
1,NCI-H2342,0.447
2,LK-2,0.497
3,H3255,0.497
4,COR-L23,0.185
5,COR-L 105,0.447
6,IA-LM,0.444
7,LOU-NH91,0.704
8,ChaGo-K-1,0.378
9,A549,0.0629
10,SW 900,1
11,NCI-H1648,1.05
12,NCI-H2009,0.565
13,NCI-H661,0.534
14,SW 1573,0.141
15,NCI-H1299,0.891
16,CAL-12T,0.508
17,NCI-H2228,0.188
18,NCI-H2023,0.0686
19,SK-MES-1,0.246

# Compound: O=C(Nc1cc(C(F)(F)F)cc(C(F)(F)F)c1)c1cc(Cl)ccc1O [IMD-0354] + CS(=O)(=O)N1CCN(Cc2cc3nc(-c4cccc5[nH]ncc45)nc(N4CCOCC4)c3s2)CC1 [Pictilisib] (partner 1 µM)
# Test: as above
# Conditions: first compound 0.04 µM
# Outline: as §1
row,Cell Line,relative viability
1,NCI-H727,0.384
2,NCI-H1650,0.722
3,EBC-1,0.421
4,NCI-H1703,0.273
5,NCI-H1993,0.773
6,SK-LU-1,0.681
7,NCI-H838,0.559
8,LCLC-103H,0.676
9,NCI-H520,0.372
10,NCI-H2126,0.527
11,EMC-BAC-2,0.647
12,NCI-H2085,0.404
13,Calu-6,0.988
14,HCC-366,0.16
15,NCI-H1666,0.308
16,NCI-H596,0.383
17,NCI-H1395,0.592

row,Cell Line,relative viability
1,NCI-H2087,0.711
2,LK-2,0.425
3,H3255,0.469
4,COR-L23,0.636
5,COR-L 105,0.439
6,LOU-NH91,0.556
7,ChaGo-K-1,1.11
8,A549,0.655
9,NCI-H2009,1
10,NCI-H661,0.416
11,SW 1573,0.577
12,NCI-H1299,0.753
13,CAL-12T,0.373
14,NCI-H2228,0.388
15,NCI-H2023,0.301
16,NCI-H1563,0.635
17,SK-MES-1,0.353

# Same assay, conditions: first compound 0.1265 µM
row,Cell Line,relative viability
1,NCI-H727,0.368
2,NCI-H1650,0.484
3,EBC-1,0.327
4,NCI-H1703,0.241
5,NCI-H1993,0.783
6,SK-LU-1,0.583
7,NCI-H838,0.458
8,LCLC-103H,0.655
9,NCI-H520,0.287
10,NCI-H2126,0.478
11,EMC-BAC-2,0.545
12,NCI-H2085,0.422
13,Calu-6,0.87
14,HCC-366,0.193
15,NCI-H1666,0.434
16,NCI-H596,0.381
17,NCI-H1395,0.589
18,NCI-H2087,0.979

row,Cell Line,relative viability
1,LK-2,0.504
2,H3255,0.421
3,COR-L23,0.646
4,COR-L 105,0.351
5,IA-LM,0.377
6,LOU-NH91,0.591
7,ChaGo-K-1,1.22
8,A549,0.547
9,NCI-H2009,0.844
10,NCI-H661,0.418
11,SW 1573,0.468
12,NCI-H1299,0.717
13,CAL-12T,0.548
14,NCI-H2228,0.367
15,NCI-H2023,0.255
16,NCI-H1563,0.704
17,SK-MES-1,0.363

# Same assay, conditions: first compound 0.4 µM
row,Cell Line,relative viability
1,NCI-H727,0.35
2,NCI-H1650,0.434
3,EBC-1,0.29
4,NCI-H1703,0.235
5,NCI-H1993,0.706
6,SK-LU-1,0.379
7,NCI-H838,0.377
8,LCLC-103H,0.521
9,NCI-H520,0.195
10,NCI-H2126,0.471
11,EMC-BAC-2,0.41
12,NCI-H2085,0.424
13,Calu-6,0.379
14,HCC-366,0.168
15,NCI-H1666,0.295
16,NCI-H596,0.375
17,NCI-H1395,0.555
18,NCI-H2087,0.43

row,Cell Line,relative viability
1,LK-2,0.408
2,H3255,0.342
3,COR-L23,0.371
4,COR-L 105,0.303
5,IA-LM,0.216
6,LOU-NH91,0.259
7,ChaGo-K-1,0.495
8,A549,0.237
9,NCI-H2009,0.618
10,NCI-H661,0.34
11,SW 1573,0.263
12,NCI-H1299,0.369
13,CAL-12T,0.315
14,NCI-H2228,0.217
15,NCI-H2023,0.202
16,NCI-H1563,0.595
17,SK-MES-1,0.335

# Same assay, conditions: first compound 1.265 µM
row,Cell Line,relative viability
1,NCI-H727,0.237
2,NCI-H1650,0.166
3,EBC-1,0.153
4,NCI-H1703,0.157
5,NCI-H1993,0.617
6,SK-LU-1,0.33
7,NCI-H838,0.247
8,LCLC-103H,0.544
9,NCI-H520,0.17
10,NCI-H2126,0.353
11,EMC-BAC-2,0.416
12,NCI-H2085,0.309
13,Calu-6,0.121
14,HCC-366,0.148
15,NCI-H1666,0.176
16,NCI-H596,0.372
17,NCI-H1395,0.346
18,NCI-H2087,0.198
19,LK-2,0.381
20,H3255,0.34
21,COR-L23,0.131
